The source made the active and inactive calls. The rule behind the calls is not given here.
Columns and labels:
Plasmodium falciparum [1] = experiment: Antiplasmodial activity against erythrocytic stage of chloroquine-resistant Plasmodium falciparum W2 measured after 48 hrs by flow cytometry; type: functional, organism-based; conditions: W2, 48 h
Plasmodium berghei = experiment: Antiplasmodial activity against hepatic stage Plasmodium berghei infected in Huh-7 cells assessed as cell viability incubated for 1 hrs and measured by 48 hrs by bioluminescence assay; type: functional, organism-based
Plasmodium falciparum [2] = experiment: Inhibition of plasmodium falciparum 3D7 ATP4 ATPase activity under low-soidum conditions at 50 uM
Plasmodium falciparum [3] = experiment: Antiplasmodial activity against Plasmodium falciparum 3D7 measured after 72 hrs by parasite proliferation assay; type: functional, organism-based; conditions: 3D7, 72 h
Plasmodium falciparum [4] = experiment: Inhibition of plasmodium falciparum 3D7 ATP4 ATPase activity under high-soidum conditions at 50 uM
Plasmodium falciparum [5] = experiment: Inhibition of plasmodium falciparum 3D7 ATP4 ATPase activity under high-soidum conditions at 125 nM
Plasmodium falciparum [6] = experiment: Antiplasmodial activity against Plasmodium falciparum 3D7 assessed as effect on cytosolic sodium concentration at 50 nM measured after 90 mins by SBFI-dye based fluorescence method; type: functional, organism-based

Row | Compound | IC50 (Plasmodium falciparum [1]) [µM] | IC50 (Plasmodium berghei) [µM] | other results
1 | O=C1Nc2ccc(Cl)cc2C12OC(c1ccc(Cl)cc1)=NN2c1ccccc1 (stereo unspecified) | > 10 | – | –
2 | COc1ccc(C2=NN(c3ccccc3)C3(O2)C(=O)Nc2ccc(Cl)cc23)cc1 (stereo unspecified) | > 10 | – | –
3 | CC(C)(C)C1=NN(c2cccc(Cl)c2)C2(O1)C(=O)Nc1ccc(Br)cc12 (stereo unspecified) | 7.5 | 9 | –
4 | COc1ccc(C2=NN(c3ccccc3)C3(O2)C(=O)Nc2ccc(Br)cc23)cc1 (stereo unspecified) | 8.3 | > 10 | –
5 | O=C1Nc2cc(Br)ccc2C12OC(c1ccccc1)=NN2c1cccc(Cl)c1 (stereo unspecified) | > 10 | – | –
6 | O=C1Nc2c(Cl)cccc2C12OC(c1ccc(Cl)cc1)=NN2c1ccccc1 (stereo unspecified) | > 10 | – | –
7 | O=C1Nc2ccc(Br)cc2C12OC(c1ccccc1)=NN2c1ccc(Cl)cc1 (stereo unspecified) | 6 | 4.1 | inhibition (Plasmodium falciparum [2]): Active; IC50 (Plasmodium falciparum [3]): 6.2 µM; inhibition (Plasmodium falciparum [4]): Active
8 | O=C1Nc2ccc(Br)cc2C12OC(c1ccc(Cl)cc1)=NN2c1ccccc1 (stereo unspecified) | > 10 | – | –
9 | COc1ccc(C2=NN(c3ccccc3)C3(O2)C(=O)Nc2c(Cl)cccc23)cc1 (stereo unspecified) | > 10 | – | –
10 | O=C1Nc2ccc(Br)cc2C12OC(c1cccc(Cl)c1)=NN2c1ccccc1 (stereo unspecified) | > 10 | – | –
11 | O=C1Nc2ccccc2C12OC(c1ccccc1)=NN2c1cccc(Cl)c1 (stereo unspecified) | > 10 | – | –
12 | CC(C)(C)C1=NN(c2ccccc2Cl)C2(O1)C(=O)Nc1ccc(Cl)cc12 (stereo unspecified) | > 10 | – | –
13 | CC(C)(C)C1=NN(c2cccc(Cl)c2)C2(O1)C(=O)Nc1cc(Br)ccc12 (stereo unspecified) | 4.6 | 9.5 | –
14 | O=C1Nc2cc(Cl)ccc2C12OC(c1ccccc1)=NN2c1cccc(Cl)c1 (stereo unspecified) | 8.6 | 7.2 | –
15 | COc1ccc(C2=NN(c3ccccc3)C3(O2)C(=O)Nc2ccccc23)cc1 (stereo unspecified) | > 10 | – | –
16 | CC(C)(C)C1=NN(c2cccc(Cl)c2)C2(O1)C(=O)Nc1cc(Cl)ccc12 (stereo unspecified) | 3.8 | > 10 | –
17 | O=C1Nc2ccccc2C12OC(c1cccc(Cl)c1)=NN2c1ccccc1 (stereo unspecified) | > 10 | – | –
18 | O=C1Nc2ccc(Cl)cc2C12OC(c1ccccc1)=NN2c1cccc(Cl)c1 (stereo unspecified) | 6.4 | 7 | –
19 | CC(C)(C)C1=NN(c2cccc(Cl)c2)C2(O1)C(=O)Nc1ccc(Cl)cc12 (stereo unspecified) | 3.5 | 5.3 | –
20 | O=C1Nc2ccc(Br)cc2C12OC(c1ccccc1)=NN2c1cccc(Cl)c1 (stereo unspecified) | 6.7 | 3.9 | –
21 | C[C@H]1Cc2c([nH]c3cc(Cl)c(F)cc23)[C@@]2(N1)C(=O)Nc1ccc(Cl)cc12 | – | – | inhibition (Plasmodium falciparum [5]): Active; Activity (Plasmodium falciparum [6]): Active
22 | O=C1Nc2c(Cl)cccc2C12OC(c1ccccc1)=NN2c1ccc(Cl)cc1 (stereo unspecified) | 7.6 | > 10 | –
23 | CC(C)(C)C1=NN(c2ccccc2Cl)C2(O1)C(=O)Nc1ccc(Br)cc12 (stereo unspecified) | > 10 | – | –
24 | O=C1Nc2c(Cl)cccc2C12OC(c1cccc(Cl)c1)=NN2c1ccccc1 (stereo unspecified) | > 10 | – | –
25 | O=C1Nc2ccc(Cl)cc2C12OC(c1cccc(Cl)c1)=NN2c1ccccc1 (stereo unspecified) | > 10 | – | –
26 | O=C1Nc2c(Cl)cccc2C12OC(c1cccc(Cl)c1)=NN2c1cccc(Cl)c1 (stereo unspecified) | > 10 | – | –
27 | O=C1Nc2c(Cl)cccc2C12OC(c1ccccc1)=NN2c1cccc(Cl)c1 (stereo unspecified) | > 10 | – | –
